Reference: patent EP2070923A1, “Insecticide iminoheterocycles” (priority 2007, dated 2009)
Like-named read-outs stand apart in the source and are kept apart here.

Tests used:
[1] = logP (HCOOH); settings: hplc, formic acid
[2] = tested on: Myzus persicae; assay: Myzus test (spray treatment); format: in vivo; settings: foliar, read-out: Wirkung
Excerpt: Myzus-Test (Spritzbehandlung)
(§1) Zur Herstellung einer zweckmäßigen Wirkstoffzubereitung vermischt man 1 Gewichtsteil Wirkstoff mit den angegebenen Mengen Lösungsmittel und Emulgator und verdünnt das Konzentrat mit emulgatorhaltigem Wasser auf die gewünschte Konzentration. Chinakohlblattscheiben (Brassica pekinensis), die von allen Stadien der Grünen Pfirsichblattlaus (Myzus persicae) befallen sind, werden mit einer Wirkstoffzubereitung der gewünschten Konzentration gespritzt. Nach der gewünschten Zeit wird die Wirkung in % bestimmt. Dabei bedeutet 100 %, dass alle Blattläuse abgetötet wurden; 0 % bedeutet, dass keine Blattläuse abgetötet wurden. Bei diesem Test zeigen z. B. die folgenden Verbindungen der Herstellungsbeispiele eine Wirkung von ≥ 80 % bei einer Aufwandmenge von 500 g/ha: • Bsp. Nr. 2, 3, 31, 32, 33, 36, 37, 39, 40, 41, 42, 43, 44, 45, 46, 63, 64, 65, 66, 86, 87, 88, 90, 95, 96, 97, 99, 103

[3] = tested on: Boophilus microplus; assay: Boophilus microplus test (injection); format: in vivo; settings: 20 µg/Tier; injection into abdomen; 100 % = no tick laid fertile eggs
Excerpt: Boophilus microplus -Test (Injektion)
Zur Herstellung einer zweckmäßigen Wirkstoffzubereitung vermischt man 1 Gewichtsteil Wirkstoff mit der angegebenen Menge Lösungsmittel und verdünnt das Konzentrat mit Lösungsmittel auf die gewünschte Konzentration. Die Wirkstofflösung wird in das Abdomen (Boophilus microplus) injiziert, die Tiere werden in Schalen überführt und in einem klimatisierten Raum aufbewahrt. Nach der gewünschten Zeit wird die Wirkung in % bestimmt. Dabei bedeutet 100%, dass keine Zecke fertile Eier gelegt hat. Bei diesem Test zeigen z. B. die folgenden Verbindungen der Herstellungsbeispiele eine Wirkung von = 80 % bei einer Aufwandmenge von 20 µg/Tier: • Bsp. Nr. 43, 44, 45, 46, 63, 64, 65, 66

[4] = physchem; settings: hplc, formic acid
[5] = tested on: Meloidogyne incognita; assay: Meloidogyne test (spray treatment), gall formation on lettuce roots; format: in vivo; settings: 20 ppm; 100 % = no galls found
Excerpt: Meloidogyne-Test (Spritzbehandlung)
Zur Herstellung einer zweckmäßigen Wirkstoffzubereitung vermischt man 1 Gewichtsteil Wirkstoff mit der angegebenen Menge Lösungsmittel und verdünnt das Konzentrat mit Wasser auf die gewünschte Konzentration. Gefäße werden mit Sand, Wirkstofflösung, Meloidogyne incognita-Ei-Larven-Suspension und Salatsamen gefüllt. Die Salatsamen keimen und die Pflänzchen entwickeln sich. An den Wurzeln entwickeln sich die Gallen. Nach der gewünschten Zeit wird die nematizide Wirkung an Hand der Gallenbildung in % bestimmt. Dabei bedeutet 100 %, dass keine Gallen gefunden wurden; 0 % bedeutet, dass die Zahl der Gallen an den behandelten Pflanzen der der unbehandelten Kontrolle entspricht. Bei diesem Test zeigen z. B. die folgenden Verbindungen der Herstellungsbeispiele eine Wirkung von ≥ 80 % bei einer Aufwandmenge von 20 ppm: • Bsp. Nr. 15, 16, 18

[6] = tested on: Tetranychus urticae; assay: Tetranychus test, OP-resistant (spray treatment); format: in vivo; settings: foliar, spray on Phaseolus vulgaris leaf discs, 100 % = all spider mites killed, read-out: Wirkung
Excerpt: Tetranychus-Test, OP-resistent (Spritzbehandlung)
as §1, with “Bohnenblattscheiben (Phaseolus vulgaris),” for “Chinakohlblattscheiben (Brassica pekinensis),”, “Gemeinen Spinnmilbe (Tetranychus urticae)” for “Grünen Pfirsichblattlaus (Myzus persicae)”, “Spinnmilben” for “Blattläuse”, “100” for “500”, “83” for “2, 3, 31, 32, 33, 36, 37, 39, 40, 41, 42, 43, 44, 45, 46, 63, 64, 65, 66, 86, 87, 88, 90, 95, 96, 97, 99, 103”

[7] = 500 g/ha, spray on Brassica pekinensis leaf discs, 100 % = all aphids killed

In the case of `CCC(N=C1OCCN1C(=O)NCCCl)c1ccc(C)c(C)n1` (centres unmarked) [Beispiel 9], the chromatographic logP [1] is reported as 1.18.

`CCC(N=C1OCCN1C(=S)NCCOC)c1ccc(C)c(C)n1` (centres unmarked) [Beispiel 11] showed a chromatographic logP [1] of 1.33.

`COCCNC(=S)N1CCOC1=NC(C)c1cc2ccccc2o1` (centres unmarked) [Beispiel 106] gave a chromatographic logP [1] of 3.9.

With `CNC(=S)N1CCOC1=NC(C)c1ccnc(Cl)c1` (centres unmarked) [Beispiel 195] the chromatographic logP [1] was 2.58.

For `COCCNC(=S)N1CCOC1=NCc1ccco1` [Beispiel 93], the chromatographic logP [1] was 2.84.

With `CCNC(=S)N1CCOC1=N[C@@H](C)c1cccs1` [Beispiel 64] the mortality at 500 g/ha [2, 7] was ≥ 80%, the Wirkung [3] was 80% and the chromatographic logP [1] was 3.59.

For `c1cc(CN=C2NCCO2)cs1` [Beispiel 32], the mortality at 500 g/ha ([2]; in Brassica rapa) was ≥ 80% and the chromatographic logP [4] was -0.05.

With `CCC(N=C1NCCO1)c1ccc(C)c(C)n1` (centres unmarked) [Beispiel 8] the chromatographic logP [4] was 0.06.

With `CC(N=C1NCCO1)c1cccs1` (centres unmarked) [Beispiel 36] the mortality at 500 g/ha ([2]; in Brassica rapa) was ≥ 80% and the chromatographic logP [4] was 0.28.

For `CCNC(=S)N1CCOC1=NC(CC)c1cc(Br)cs1` (centres unmarked) [Beispiel 31], the mortality at 500 g/ha [2, 7] was ≥ 80% and the chromatographic logP [1] was 4.72.

For `CC(N=C1NCCO1)c1ccco1` (centres unmarked) [Beispiel 95], the mortality at 500 g/ha ([2]; in Brassica rapa) was ≥ 80%.

`CCC(N=C1OCCN1C(=S)NCCOC)c1ccc(C(F)(F)F)cn1` (centres unmarked) [Beispiel 6] gave a chromatographic logP [1] of 3.69.

In the case of `CCNC(=S)N1CCOC1=NC(C)c1ccncc1` (centres unmarked) [Beispiel 18], the “nematizide Wirkung an Hand der Gallenbildung” value [5] is reported as ≥ 80% and the chromatographic logP [1] is reported as 1.07.

With `CNC(=S)N1CCOC1=NC(C)c1cc2ccccc2o1` (centres unmarked) [Beispiel 104] the chromatographic logP [1] was 3.64.

In the case of `CC(N=C1NCCO1)c1cc2ccccc2o1` (centres unmarked) [Beispiel 103], the mortality at 500 g/ha ([2]; in Brassica rapa) is reported as ≥ 80% and the chromatographic logP [4] is reported as 0.93.

With `CC(N=C1OCCN1C(=S)NCC(F)(F)F)c1cccs1` (centres unmarked) [Beispiel 46] the mortality at 500 g/ha [2, 7] was ≥ 80%, the Wirkung [3] was 80% and the chromatographic logP [1] was 3.99.

`FC(F)(F)CNC(=S)N1CCOC1=NCc1ccco1` [Beispiel 94] showed a chromatographic logP [1] of 3.29.

Compound `COCCNC(=S)N1CCOC1=NC(C)c1ccncc1` (centres unmarked) [Beispiel 19] has a chromatographic logP [1] of 1.

With `C[C@H](N=C1OCCN1C(=S)NCC(F)(F)F)c1cccs1` [Beispiel 66] the mortality at 500 g/ha [2, 7] was ≥ 80%, the Wirkung [3] was 80% and the chromatographic logP [1] was 3.98.

For `CCOC(=O)CNC(=S)N1CCOC1=NCc1ccc(Cl)nc1` [Beispiel 188], the chromatographic logP [1] was 2.54.

In the case of `CNC(=S)N1CCOC1=NC(C)c1cccs1` (centres unmarked) [Beispiel 43], the mortality at 500 g/ha [2, 7] is reported as ≥ 80%, the Wirkung [3] is reported as 80% and the chromatographic logP [1] is reported as 2.99.

In the case of `COCCNC(=S)N1CCOC1=NCc1cccs1` [Beispiel 42], the mortality at 500 g/ha [2, 7] is reported as ≥ 80% and the chromatographic logP [1] is reported as 2.84.

Compound `CCNC(=S)N1CCOC1=NC(CC)c1ccccn1` (centres unmarked) [Beispiel 13] has a chromatographic logP [1] of 1.53.

`CCNC(=S)N1CCOC1=NC(C)c1ccnc(Cl)c1` (centres unmarked) [Beispiel 196] showed a chromatographic logP [1] of 3.07.

In the case of `CNC(=S)N1CCOC1=N[C@@H](C)c1cccs1` [Beispiel 63], the mortality at 500 g/ha [2, 7] is reported as ≥ 80%, the Wirkung [3] is reported as 80% and the chromatographic logP [1] is reported as 3.02.

For `CCNC(=S)N1CCOC1=NCc1ccco1` [Beispiel 92], the chromatographic logP [1] was 2.58.

With `C[C@H](N=C1NCCO1)c1cccs1` [Beispiel 37] the mortality at 500 g/ha ([2]; in Brassica rapa) was ≥ 80% and the chromatographic logP [4] was 0.33.

Work on `CCNC(=S)N1CCOC1=NC(C)c1cc2ccccc2o1` (centres unmarked) [Beispiel 105] yielded a chromatographic logP [1] of 4.18.

With `CCNC(=S)N1CCOC1=NC(CC)c1cccs1` (centres unmarked) [Beispiel 87] the mortality at 500 g/ha [2, 7] was ≥ 80% and the chromatographic logP [1] was 4.06.

For `CCOC(=O)CNC(=S)N1CCOC1=NC(C)c1ccnc(Cl)c1` (centres unmarked) [Beispiel 198], the chromatographic logP [1] was 3.14.

`CCn1ccc(C(C)N=C2OCCN2C(=S)NC)n1` (centres unmarked) [Beispiel 76] showed a chromatographic logP [1] of 1.45.

`CCC(N=C1NCCO1)c1ccc(C(F)(F)F)cn1` (centres unmarked) [Beispiel 4] gave a chromatographic logP [4] of 0.97.

In the case of `CC(N=C1NCCO1)c1ccnc(Cl)c1` (centres unmarked) [Beispiel 194], the chromatographic logP [4] is reported as 0.02.

In the case of `CNC(=S)N1CCOC1=NC(C)c1ccco1` (centres unmarked) [Beispiel 96], the mortality at 500 g/ha [2, 7] is reported as ≥ 80% and the chromatographic logP [1] is reported as 2.38.

Work on `COCCNC(=S)N1CCOC1=NC(C)c1ccnc(Cl)c1` (centres unmarked) [Beispiel 197] yielded a chromatographic logP [1] of 2.83.

With `COCCNC(=S)N1CCOC1=NC(C)c1cccnc1` (centres unmarked) [Beispiel 16] the “nematizide Wirkung an Hand der Gallenbildung” value [5] was ≥ 80% and the chromatographic logP [1] was 1.07.

`CCC(N=C1OCCN1C(=S)NCCOC)c1cc(Br)cs1` (centres unmarked) [Beispiel 30] gave a chromatographic logP [1] of 4.48.

Compound `CNC(=S)N1CCOC1=NCc1ccco1` [Beispiel 91] has a chromatographic logP [1] of 1.89.

For `Cn1cccc1CN=C1NCCO1` [Beispiel 80], the chromatographic logP [4] was -0.09.

In the case of `CCNC(=S)N1CCOC1=NC(C)c1cccnc1` (centres unmarked) [Beispiel 15], the “nematizide Wirkung an Hand der Gallenbildung” value [5] is reported as ≥ 80% and the chromatographic logP [1] is reported as 1.16.

With `CCNC(=S)N1CCOC1=NC(CC)c1ccc(C(F)(F)F)cn1` (centres unmarked) [Beispiel 7] the chromatographic logP [1] was 3.85.

In the case of `CCNC(=S)N1CCOC1=NC(CC)c1ccc(C)c(C)n1` (centres unmarked) [Beispiel 10], the chromatographic logP [1] is reported as 1.14.

With `COCCNC(=S)N1CCOC1=NC(C)c1cccs1` (centres unmarked) [Beispiel 45] the mortality at 500 g/ha [2, 7] was ≥ 80%, the Wirkung [3] was 80% and the chromatographic logP [1] was 3.28.

Compound `CC(C)NC(=S)N1CCOC1=NCc1ccc(Cl)nc1` [Beispiel 187] has a chromatographic logP [4] of 3.14.

With `CCC(N=C1OCCN1C(=O)NCCCl)c1ccc(C(F)(F)F)cn1` (centres unmarked) [Beispiel 5] the chromatographic logP [1] was 2.15.

With `CCNC(=S)N1CCOC1=NC(C)c1cccs1` (centres unmarked) [Beispiel 44] the mortality at 500 g/ha [2, 7] was ≥ 80%, the Wirkung [3] was 80% and the chromatographic logP [1] was 3.58.

In the case of `CCC(N=C1OCCN1C(=S)NC)c1cccs1` (centres unmarked) [Beispiel 86], the mortality at 500 g/ha [2, 7] is reported as ≥ 80% and the chromatographic logP [1] is reported as 3.46.

With `CCNC(=S)N1CCOC1=NC(CC)c1ccc(Cl)s1` (centres unmarked) [Beispiel 108] the chromatographic logP [1] was 4.96.

With `CCNC(=S)N1CCOC1=NCc1ccsc1` [Beispiel 33] the mortality at 500 g/ha [2, 7] was ≥ 80% and the chromatographic logP [1] was 2.56.

For `CCC(N=C1OCCN1C(=S)NCCOC)c1cccs1` (centres unmarked) [Beispiel 88], the mortality at 500 g/ha [2, 7] was ≥ 80% and the chromatographic logP [1] was 3.71.

With `c1coc(CN=C2NCCO2)c1` [Beispiel 90] the mortality at 500 g/ha ([2]; in Brassica rapa) was ≥ 80% and the chromatographic logP [4] was -0.23.

With `COCCNC(=S)N1CCOC1=NCc1ccsc1` [Beispiel 34] the chromatographic logP [1] was 2.71.

In the case of `c1csc(CN=C2NCCO2)c1` [Beispiel 39], the mortality at 500 g/ha ([2]; in Brassica rapa) is reported as ≥ 80% and the chromatographic logP [4] is reported as -0.08.

For `CCNC(=S)N1CCO/C1=N/C(C)c1ccccn1` (centres unmarked) [Beispiel 2, (2E)-N-ethyl-2-[(1-pyridin-2-ylethyl)imino]-1,3-oxazolidine-3-carbothioamid], the mortality at 500 g/ha [2, 7] was ≥ 80% and the chromatographic logP [1] was 1.26.

In the case of `COCCNC(=S)N1CCOC1=NC(C)c1ccccn1` (centres unmarked) [Beispiel 3], the mortality at 500 g/ha [2, 7] is reported as ≥ 80% and the chromatographic logP [1] is reported as 1.12.

With `COCCNC(=S)N1CCOC1=NCc1cccn1C` [Beispiel 83] the mortality at 100 g/ha [6] was ≥ 80% and the chromatographic logP [1] was 2.37.

`C[C@H](N=C1NCCS1)c1cccs1` [Beispiel 101] showed a chromatographic logP [4] of 0.54.

Compound `CNC(=S)N1CCOC1=NCc1ccsc1` [Beispiel 35] has a chromatographic logP [1] of 1.83.

With `CNC(=S)N1CCOC1=NCc1cccs1` [Beispiel 40] the mortality at 500 g/ha [2, 7] was ≥ 80% and the chromatographic logP [1] was 2.45.

`CC(N=C1OCCN1C(=S)NCC(F)(F)F)c1cc2ccccc2o1` (centres unmarked) [Beispiel 107] gave a chromatographic logP [1] of 4.47.

With `CCC(N=C1NCCO1)c1ccccn1` (centres unmarked) [Beispiel 12] the chromatographic logP [4] was -0.01.
